Series [1] in a line: Skin flux of 10 mM drug solutions in NMP, Franz diffusion cell. The settings on record: 10 mM solution in NMP, 1 ml; receptor 10% NMP in phosphate buffer saline pH 7.4; 32° C.; 3 replicates. In kind it is in vitro ADME, rat. As to the method: A 15 mm disk of the membrane was placed on a diffusion cell filled with the receptor fluid and the diffusion cell was maintained at 32° C. A 10 mM solution of each drug in NMP was placed in an amount of 1 ml on the membrane. […] The test was conducted in 3 replicates.

Series [2] can be described thus: Solubility of celecoxib and valdecoxib in various solvents at room temperature. In kind it is physicochemical. Here is the method: In order to identify candidate solvent systems for patch formulations of selective COX-2 inhibitory drugs of low water solubility, various solvents were tested for solubility of celecoxib and valdecoxib at room temperature.
A short description of series [3]: In vitro skin permeation of 1% drug solutions, Franz diffusion cell. It counts as in vitro ADME, rat. As to the method: A 15 mm disk of the membrane was placed on a diffusion cell filled with the receptor fluid and the diffusion cell was maintained at 32° C. A 10 mM solution of each drug in NMP was placed in an amount of 1 ml on the membrane. The amount of drug that had permeated through the membrane by various times in an 8-10 hour period was determined by HPLC analysis of the receptor fluid. The test was conducted in 3 replicates. […] The test solutions in this example comprised celecoxib or valdecoxib at a concentration of 1% weight/volume in various solvents. The test was conducted in 3 replicates. […] The test solutions in this example comprised celecoxib or valdecoxib at a concentration of 1% weight/volume in NMP, with or without oleic acid at 1% weight/volume. The test was conducted in 3 replicates.

Series [4] can be described thus: In vitro skin permeation of poultice, tape and gel formulations, Franz diffusion cell. It counts as in vitro ADME, rat. Here is the method: A 15 mm disk of the membrane was placed on a diffusion cell filled with the receptor fluid and the diffusion cell was maintained at 32° C. A 10 mM solution of each drug in NMP was placed in an amount of 1 ml on the membrane. […] The test was conducted in 3 replicates. […] The test solutions in this example comprised celecoxib or valdecoxib at a concentration of 1% weight/volume in various solvents. The test was conducted in 3 replicates. A 25 mm disk was punched from each poultice and placed on a Franz diffusion cell. […]

A short description of series [5]: Solubility of valdecoxib in NMP/PEG 400 mixtures at room temperature. It counts as physicochemical. As to the method:
Solubility was determined by preparing a saturated solution of valdecoxib in the test solvent system at 80° C. and cooling this solution for 24 hours at room temperature.

The mark [6] stands for this setting: in 1,3-butylene glycol, room temperature.
The mark [7] stands for this setting: in crotamiton, room temperature.
Setting [8] is: in diethyl sebacate, room temperature.
Where [9] appears, read: in dipropylene glycol, room temperature.
Setting [10] is: in propylene glycol, room temperature.
[11] abbreviates: 0.5% poultice (crotamiton/PEG 400 solvents), 25 mm disk.

Each structure is given as a SMILES string.

`CC(C(=O)O)c1cccc(C(=O)c2ccccc2)c1` (centres unmarked) [ketoprofen] registered a skin flux in series [1] of 33.4 nmol/cm^2 · h.

As to `Cc1ccc(-c2cc(C(F)(F)F)nn2-c2ccc(S(N)(=O)=O)cc2)cc1` [celecoxib, 4-[5-(4-methylphenyl)-3-(trifluoromethyl)-1H-pyrazol-1-yl]benzenesulfonamide], the solubility in series [2] (setting [6]) is 20 mg/g; in series [2] (in DIA, room temperature), 94 mg/g; in series [2] (in NMP, room temperature), 219 mg/g; in series [2] (in PEG 400, room temperature), 340 mg/g; in series [2] (setting [7]), 306 mg/g; in series [2] (setting [8]) it was 77 mg/g. Also, the solubility was 44 mg/g in series [2] (setting [9]) and 28 mg/g in series [2] (setting [10]). Moreover, the skin flux in series [3] (1% weight/volume in NMP) is 0.15 μg/cm^2 · h; in series [3] (1% weight/volume in PEG 400), “not detectable”; in series [3] (1% weight/volume in crotamiton) it was “not detectable”; in series [4] (setting [11]), 0.008 μg/cm^2 · h; in series [4] (1.0% gel (70% ethanol), 200 mg) it was 0.039 μg/cm^2 · h; in series [1], 1.6 nmol/cm^2 · h.

Take `Cc1onc(-c2ccccc2)c1-c1ccc(S(N)(=O)=O)cc1` [valdecoxib, 4-[5-methyl-3-phenylisoxazol-4-yl]benzenesulfonamide]: the solubility is recorded as 19 mg/g in series [2] (setting [6]); 20 mg/g in series [2] (in DIA, room temperature); 190 mg/g in series [2] (in NMP, room temperature); 198 mg/g in series [2] (in PEG 400, room temperature); 165 mg/g in series [2] (setting [7]); 10 mg/g in series [2] (setting [8]). Moreover, the solubility is given as 67 mg/g in series [2] (setting [9]); 1 mg/g in series [2] (in glycerol, room temperature); 30 mg/g in series [2] (setting [10]); 169 mg/g in series [5] (NMP:PEG 400 ratio 0:5, saturated at 80° C., cooled 24 hours at room temperature); 190 mg/g in series [5] (NMP:PEG 400 ratio 5:0); 149 mg/g in series [5] (NMP:PEG 400 ratio 5:1). Further, the solubility in series [5] (NMP:PEG 400 ratio 5:2) was 126 mg/g; in series [5] (NMP:PEG 400 ratio 5:3) it was 100 mg/g; in series [5] (NMP:PEG 400 ratio 5:4) it was 73 mg/g; in series [5] (NMP:PEG 400 ratio 5:5), 71 mg/g. In addition, the “time at which amount of drug permeated reached a plateau” value in series [3] (1% in NMP, FIG. 4) is “about 4 hours”. The skin flux is given as 0.51 μg/cm^2 · h in series [3] (1% weight/volume in NMP); “not detectable” in series [3] (1% weight/volume in PEG 400); 0.02 μg/cm^2 · h in series [3] (1% weight/volume in crotamiton); 0.009 μg/cm^2 · h in series [4] (setting [11]); 0.115 μg/cm^2 · h in series [4] (1.0% gel (70% ethanol), 200 mg); 3.3 nmol/cm^2 · h in series [1].

Values taken from patent publication US20050020658A1, “Selective cyclooxygenase-2 inhibitor patch” (priority 2002, published 2005).
